Test [1] relates to Plasmodium falciparum 3D7. In words: P. falciparum growth inhibition assay (Pf-LDH). The class given is cell-based. The following applies: Plasmodium falciparum, Erythrocyte; P. falciparum 3D7 infected erythrocytes, 72 h incubation, PfLDH readout. Here is the method:
Basic culture of Plasmodium falciparum 3D7 parasites (Malaria Research and Reference Reagent Resource Center (MR4), MR4 Number: MRA-102).
Starting with a culture with a parasitemia of about 10% (and 5% hematocrit), 0.5 ml of the culture is placed in a fresh 100 mm petri dish with 0.95 ml of fresh erythrocytes (50% hematocrit) and 8.55 ml of culture medium, giving a new starting parasitemia of 0.5%. The petri dish is then incubated at 37° C. in a humidified gas-tight plastic box flushed with a gas mixture consisting of 93% N2, 4% CO2, and 3% O2. The culture medium is changed daily. The supernatant is removed by gently tipping the dish without disturbing the settled cells and aspirating the medium with a Pasteur pipette connected to a vacuum pump. A small amount of the concentrated cells is taken to prepare a blood smear for determination of the parasitemia. Normally, the cultures are split twice a week. If the parasites are growing very slowly then fresh erythrocytes are added to the culture no later than after 7 days. The cultures are then split 1:2 if the parasitemia is lower than 0.5%. To avoid the necessity of daily medium change on weekends, a culture with a 2.5% hematocrit and 0.1-0.2% parasitemia is set up and can be left for 3 days without medium change.
Standard medium consists of RPMI 1640, supplemented with 25 mM HEPES, 24 mM NaHCO3, 0.36 mM hypoxanthine, 100 μg/ml Neomycin, 5 g/1 Albumax® II, and washed human red blood cells (rbcs) A+.
P. falciparum Growth Inhibition Assay (Pf-LDH)
Compounds of the invention were assessed for in vitro antimalarial activity against a cloroquine sensitive (3D7) strain of the malaria parasite Plasmodium falciparum, using a lactate dehydrogenase (PfLDH) assay.
EC50 Determination by Pf-LDH Assay
384 plates (where compounds to be tested are dispensed) with 25 μl of parasite inoculum (parasitemia: 0.25%, hematocrit: 2%) are incubated at 37° C. in an atmosphere of 4% CO2, 3% O2, 93% N2. After 72 h of incubation, plates are frozen at −70° C. overnight and thawed at room temperature for at least 4 h. To evaluate PfLDH activity, 70 μl of freshly made reaction mix (143 mM sodium L-lactate, 143 μM 3-acetyl pyridine adenine dinucleotide (APAD), 178.75 μM Nitro Blue tetrazolium chloride (NBT), 286 μg/ml diaphorase (2.83 U/ml), 0.7% Tween 20, 100 mM Tris-HCl pH 8.0) is dispensed using a Multidrop Combi dispenser. Plates are shaken to ensure mixing and absorbance at 650 nm is monitored in a plate reader after 10 min of incubation at room temperature.
Negative controls (0% Effect) are produced by addition of DMSO to the proper wells.
Positive controls (100% Effect) are produced by addition of 150 nM Artemisinin (Sigma-Aldrich, 361593)
After result normalization using positive and negative controls, compound potency is determined by fitting the following equation: % inh=Ymin+(Ymax−Ymin)/(1+(X/EC50)^slope)) Where: • Ymin=minimum percentage effect • Ymax=maximum percentage effect • EC50=the concentration of the compound at which 50% effect is reached • Slope=the slope of the curve calculated at the EC50 Histone Hyperacetylation and Immunodetection of Altered Histone Modifications Assay

The target of a further test is T1, human HDAC1 (Homo sapiens, UniProt Q13547).
T1 construct: made in house; host or cells: HeLa (ATCC CCL-2), mammalian cells
In words: Homo sapiens HDAC1 inhibition assay (Fluor-de-Lys, enzymatic). The test is classed as biochemical. To be noted: human HDAC enzymatic assay; read-out: hHDAC IC50. The protocol: Biology Homo sapiens HDAC1 Inhibition Assay Overview:
The aim of the assay is to evaluate the inhibition of the deacetylase activity of human HDAC1. To such goal an acetylated substrate is added to the enzyme mix; the resulting enzymatic product is converted to a fluorescent molecule by the addition the enzyme trypsine (developer solution). Fluorescence intensity is inversely proportional to the rate of inhibition of the enzyme (as indicated in the material section below).
Reagents of the HDAC Fluorescent Activity Assay are purchased from Enzo Life Sciences (http://www.enzolifesciences.com/BML-AK500/fluor-de-lys-hdac-fluorometric-activity-assay-kit/) and feature the Fluor-de-Lys™ Substrate/Developer System.
c) Trichostatin A (TSA) Stock
TSA (Sigma-Aldrich, T8552) is provided as a 10 mM stock solution in 100% dimethylsulfoxide (DMSO).
Diluted Substrate Solution
The final concentration in the assay is 20 μM.
Diluted Developer Solution
2 μM [final] TSA to this solution increases its ability to stop the reaction.
The HDAC1 enzyme is diluted in assay buffer prior to each use from a fresh aliquot of enzyme.
The final concentration in the assay is 1-2 nM.
Test compounds should be prepared in 100% DMSO and transferred to the assay by a nano volume dispenser to reach the appropriate concentration and the appropriate DMSO concentration (0.25%) in the reaction.

T1 sequence (Q13547 whole entry): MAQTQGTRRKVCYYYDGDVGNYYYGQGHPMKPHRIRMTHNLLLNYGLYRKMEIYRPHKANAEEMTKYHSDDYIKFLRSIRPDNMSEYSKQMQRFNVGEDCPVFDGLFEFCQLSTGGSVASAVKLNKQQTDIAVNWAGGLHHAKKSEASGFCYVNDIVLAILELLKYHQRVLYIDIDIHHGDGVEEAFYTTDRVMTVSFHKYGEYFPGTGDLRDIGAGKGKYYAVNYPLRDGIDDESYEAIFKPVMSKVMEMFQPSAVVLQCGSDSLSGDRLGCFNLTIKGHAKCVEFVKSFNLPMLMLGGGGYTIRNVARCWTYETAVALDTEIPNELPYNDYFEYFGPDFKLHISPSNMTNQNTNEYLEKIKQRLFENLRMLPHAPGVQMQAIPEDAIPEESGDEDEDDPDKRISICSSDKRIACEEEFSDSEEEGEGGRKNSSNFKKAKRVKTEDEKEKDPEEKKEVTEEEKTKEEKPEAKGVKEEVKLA

One may read the EC50 as the concentration at which the effect is half-maximal. Higher therefore signals a need for much substance. The IC50 is the concentration needed to halve the response being measured. `CNC(=O)CCCCC[C@H](NC(=O)c1cncs1)c1ncc(-c2ccc3nc(C(F)(F)F)ccc3c2)[nH]1` [Entry 19, (S)-N-(7-(methylamino)-7-oxo-1-(5-(2-(trifluoro-methyl)quinolin-6-yl)-1H-imidazol-2-yl)heptyl)thiazole-5-carboxamide] returned an EC50 in test [1] of 1000 to 5000 nM. The IC50 on human HDAC1 fell in the range of 1000 to 5000 nM.

In test [1], `CNC(=O)CCCCC[C@H](NC(=O)Cn1nnc(N2CCCC2)n1)c1ncc(-c2ccc3ccccc3c2)[nH]1` [Entry 20] registered an EC50 of 1000 to 5000 nM. In addition, the IC50 at human HDAC1 was less than 1000 nM.

`CNC(=O)CCCCC[C@H](NC(=O)Cc1ccccc1)c1ncc(-c2ccc3ccccc3c2)[nH]1` [Entry 21] registered an EC50 in test [1] of 1000 to 5000 nM. On human HDAC1, the IC50 is less than 1000 nM.

With `CNC(=O)CCCCC[C@H](NC(=O)Cc1cnc2ncnn2c1)c1ncc(-c2ccc3ccccc3c2)[nH]1` [Entry 22, (S)-7-(2-([1,2,4]triazolo[1,5-a]pyrimidin-6-yl)acetamido)-N-methyl-7-(5-(naphthalen-2-yl)-1H-imidazol-2-yl)heptanamide], in test [1], the concentration giving a half-maximal response (EC50) is less than 1000 nM. Moreover, at human HDAC1, the IC50 was less than 1000 nM.

Compound `CNC(=O)CCCCC[C@H](NC(=O)CN1CCOCC1)c1ncc(-c2ccc3ccccc3c2)[nH]1` [Entry 23, (S)-N-methyl-7-(2-morpholinoacetamido)-7-(5-(naphthalen-2-yl)-1H-imidazol-2-yl)heptanamide] came in with an EC50 in test [1] of 1000 to 5000 nM. Further, on human HDAC1, the IC50 fell in the range of 1000 to 5000 nM.

For `CNC(=O)CCCCC[C@H](NC(=O)c1cncs1)c1ncc(-c2ccc3[nH]ccc3c2)[nH]1` [Entry 24, (S)-N-(1-(5-(1H-indol-5-yl)-1H-imidazol-2-yl)-7-(methylamino)-7-oxoheptyl)thiazole-5-carboxamide], the EC50 in test [1] was less than 1000 nM. Besides, the IC50 on human HDAC1 is 1000 to 5000 nM.

For `CCOc1cccc2cc(-c3cnc([C@H](CCCCCC(=O)NC)NC(=O)c4cncs4)[nH]3)ccc12` [Entry 25, (S)-N-(1-(5-(5-ethoxynaphthalen-2-yl)-1H-imidazol-2-yl)-7-(methylamino)-7-oxoheptyl)thiazole-5-carboxamide], in test [1], the EC50 is less than 1000 nM. Besides, the IC50 at human HDAC1 was 1000 to 5000 nM.

In the case of `CNC(=O)CCCCC[C@H](NC(=O)C1CN(C)C1)c1ncc(-c2ccc3ccccc3c2)[nH]1` [Entry 26], in test [1], the EC50 lay in the range of 1000 to 5000 nM. On human HDAC1, the IC50 is less than 1000 nM.

`CNC(=O)CCCCC[C@H](NC(=O)CCn1ccnc1)c1ncc(-c2cc3ccccc3nc2OC)[nH]1` [Entry 27, (S)-7-(3-(1H-imidazol-1-yl)propanamido)-7-(5-(2-methoxyquinolin-3-yl)-1H-imidazol-2-yl)-N-methylheptanamide] returned an EC50 in test [1] of 1000 to 5000 nM. Further, the half-maximal inhibitory concentration (IC50) on human HDAC1 fell in the range of 1000 to 5000 nM.

`CCc1nc2ccccc2n1CCC(=O)N[C@@H](CCCCCC(=O)NC)c1ncc(-c2ccc(C(F)(F)F)cc2)[nH]1` [Entry 28] had an EC50 in test [1] of 1000 to 5000 nM. The IC50 at human HDAC1 was less than 1000 nM.

Turning to `CNC(=O)CCCCC[C@H](NC(=O)c1cncs1)c1ncc(-c2ccc(-c3ccncc3)cc2)[nH]1` [Entry 29, (S)-N-(7-(methylamino)-7-oxo-1-(5-(4-(pyridin-4-yl)phenyl)-1H-imidazol-2-yl)heptyl)thiazole-5-carboxamide], the EC50 in test [1] fell in the range of 1000 to 5000 nM. Moreover, at human HDAC1, the IC50 fell in the range of 1000 to 5000 nM.

For the compound `CNC(=O)CCCCC[C@H](NC(=O)c1csc(-c2cccnc2)n1)c1ncc(-c2cc3ccccc3nc2OC)[nH]1` [Entry 30], the EC50 in test [1] was 1000 to 5000 nM. On human HDAC1, the IC50 is greater than 5000 nM.

In turn, `CNC(=O)CCCCC[C@H](NC(=O)c1nnc(C)s1)c1ncc(-c2cc3ccccc3nc2OC)[nH]1` [Entry 31, (S)-N-(1-(5-(2-methoxyquinolin-3-yl)-1H-imidazol-2-yl)-7-(methylamino)-7-oxoheptyl)-5-methyl-1,3,4-thiadiazole-2-carboxamide] came in with an EC50 in test [1] of 1000 to 5000 nM. Also, the IC50 on human HDAC1 is less than 1000 nM.

On to `CNC(=O)CCCCC[C@H](NC(=O)CN1CCC(N(C)C)C1)c1ncc(-c2cc3ccccc3nc2OC)[nH]1` (stereo partly drawn) [Entry 32, (7S)-7-(2-(3-(dimethyl-amino)pyrrolidin-1-yl)acetamido)-7-(5-(2-methoxyquinolin-3-yl)-1H-imidazol-2-yl)-N-methylheptanamide], for which the EC50 in test [1] was greater than 5000 nM. Also, the IC50 at human HDAC1 is less than 1000 nM.

In turn, `CNC(=O)CCCCC[C@H](NC(=O)C1CCCN(C)C1)c1ncc(-c2cc3ccccc3nc2OC)[nH]1` (stereo partly drawn) [Entry 33, N-((S)-1-(5-(2-methoxyquinolin-3-yl)-1H-imidazol-2-yl)-7-(methylamino)-7-oxoheptyl)-1-methylpiperidine-3-carboxamide] had an EC50 in test [1] of 1000 to 5000 nM. The IC50 at human HDAC1 is less than 1000 nM.

Turning to `CNC(=O)CCCCC[C@H](NC(=O)c1cnsc1)c1ncc(-c2ccc3[nH]ncc3c2)[nH]1` [Entry 34, (S)-N-(1-(5-(1H-indazol-5-yl)-1H-imidazol-2-yl)-7-(methylamino)-7-oxoheptyl)isothiazole-4-carboxamide], the EC50 in test [1] fell in the range of 1000 to 5000 nM. In addition, the IC50 on human HDAC1 lay in the range of 1000 to 5000 nM.

As for `CNC(=O)CCCCC[C@H](NC(=O)c1cncs1)c1ncc(-c2cccc(CN)c2)[nH]1` [Entry 35, (S)-N-(1-(5-(3-(amino-methyl)phenyl)-1H-imidazol-2-yl)-7-(methylamino)-7-oxoheptyl)thiazole-5-carboxamide], in test [1], the EC50 was less than 1000 nM. Moreover, the IC50 on human HDAC1 was in the range of 1000 to 5000 nM.

`CNC(=O)CCCCC[C@H](NC(=O)c1cncs1)c1ncc(-c2cnc3ccccc3c2)[nH]1` [Entry 36, (S)-N-(7-(methylamino)-7-oxo-1-(5-(quinolin-3-yl)-1H-imidazol-2-yl)heptyl)thiazole-5-carboxamide] gave an EC50 in test [1] of less than 1000 nM. At human HDAC1, the IC50 lay within 1000 to 5000 nM.

In the case of `CNC(=O)CCCCC[C@H](NC(=O)OCc1ccccc1)c1ncc(-c2ccc(-c3cc[nH]n3)cc2)[nH]1` [Entry 37, (S)-benzyl(1-(5-(4-(1H-pyrazol-3-yl)phenyl)-1H-imidazol-2-yl)-7-(methylamino)-7-oxoheptyl)carbamate], the EC50 in test [1] lay within 1000 to 5000 nM. The 50% inhibitory concentration (IC50) at human HDAC1 is less than 1000 nM.

On to `CNC(=O)CCCCC[C@H](NC(=O)CCc1c(C)nc2ncnn2c1C)c1ncc(-c2ccc(-n3cccn3)cc2)[nH]1` [Entry 38, (S)-7-(5-(4-(1H-pyrazol-1-yl)phenyl)-1H-imidazol-2-yl)-7-(3-(5,7-dimethyl-[1,2,4]triazolo[1,5-a]pyrimidin-6-yl)propanamido)-N-methylheptanamide], for which the EC50 in test [1] was 1000 to 5000 nM. For the same compound, the IC50 at human HDAC1 was in the range of 1000 to 5000 nM.

`CNC(=O)CCCCC[C@H](NC(=O)CC1=CSC2=NCCCN12)c1ncc(-c2ccc(-n3cccn3)cc2)[nH]1` [Entry 39, (S)-7-(5-(4-(1H-pyrazol-1-yl)phenyl)-1H-imidazol-2-yl)-7-(2-(6,7-dihydro-5H-thiazolo[3,2-a]pyrimidin-3-yl)acetamido)-N-methylheptanamide] registered an EC50 in test [1] of 1000 to 5000 nM. On human HDAC1, the IC50 fell in the range of 1000 to 5000 nM.

The compound `CNC(=O)CCCCC[C@H](NC(=O)C1(C)CCOCC1)c1ncc(-c2ccc3ccccc3c2)[nH]1` [Entry 40] displayed an EC50 in test [1] of 1000 to 5000 nM. Also, the IC50 at human HDAC1 was in the range of 1000 to 5000 nM.

(Values after US9365541B2, “Compounds for use in the treatment of parasitic diseases” (IRBM—SCIENCE PARK S.P.A., priority 2012, dated 2016).)
